In patent EP4737449A1 (Changchun Genescience Pharmaceutical Co., Ltd., priority 2023, dated 2025):

biological target: T1, p53-Y220C mutant protein (Homo sapiens, UniProt P04637, Y220C); assay: In vitro DNA binding activity assay (TR-FRET); type: biochemical; details: concentration required to increase the binding activity of protein to DNA by 50%
T1 construct: The recombinant Y220C p53 DBD protein with his-tag
Protocol: The activity of the compound to modulate the binding of the p53-Y220C mutant protein to DNA was detected using TR-FREt (Time-Resolved Fluorescence Resonance Energy Transfer). The recombinant Y220C p53 DBD protein with his-tag and the DNA sequence with biotin label were prepared firstly. Donor Eu(Europium)-SA(Streptavidin) can be bound to the DNA sequence through biotin, receptor for his antibody attached to alphaphycocyanin(APC, allophycocyanin), and his antibody can be bound to the Y220C p53 DBD protein with his-tag. When exposed to an excitation light with a wavelength of 340 nm, the donor Eu(Europium)-SA(Streptavidin) can emit fluorescence with a wavelength of 615 nm. If the donor and the receptor are close to each other, the donor will transfer part of the energy to the receptor and produce fluorescence with a wavelength of 665 nm. […] If there is no interaction, only 615 nm fluorescence is produced. • 1) Experimental steps • a. Adding 4 µL of dilute compound solution to each well of a 384-well microplate; • a. Adding 4 µL of 4X P53 working solution to each well of the 384-well microplate; • c. Sealing the 384-well microplate and equilibrating the system at room temperature for 60 min; • d. Adding 4 µl of biotin DNA solution to the 384-well microplate; • e. Adding 4 µl of 4X test solution (MAb Anti-6His-Eu and streptavidin-d2) to each well of the 384-well microplate; • f. Incubating overnight in the dark; and • g. Reading data of 665 nm and 615 nm wavelengths on the BMG multifunctional microplate reader. • 2) Data analysis • a. Calculating the ratio for each well (Ratio665 nm/615 nm-Ratiobackground); • b. Calculating the activity percentage (%activity) as follows: C = (Ave_Ac−Ave_Ba)/(Ave_Dc−Ave_Bd) [formula] R data = (A−Ave_Ba−CD)/(D−Ave_Bd)*(Ave_Dc−Ave_Bd) [formula] % Activity = R data/Ave_VC*100 [formula] • A: Fluorescence intensity of the sample at 665 nm; D: Fluorescence intensity of the sample at 615 nm; • Ba: Background fluorescence intensity of the culture plate at 665 nm; Bd: Background fluorescence intensity of the culture plate at 615 nm; • Dc: Background fluorescence intensity of HIS-E at 615 nm; Ac: Background fluorescence intensity of streptavidin-d2 at 665 nm); and • c. Calculating SC150 and plotting dose-effect curve
Compared to the absence of the compound of the present invention, the activation percentage of binding of the p53 mutant protein to DNA in the presence of the compound of the present invention is expressed as SC150, which indicates the concentration of the compound required to increase the DNA binding activity of the p53 mutant protein by 50%. The SC150 is calculated using Prism™.

| Structure (SMILES) | SC150 [nM] |
| --- | --- |
| CN(C)C1CC[C@@H](Nc2cccc3c(CC(F)(F)F)c(C#CCNC(=O)c4cnn(C(C)(C)C)c4N)nn23)[C@@H](F)C1 (single isomer, unassigned) [Compound 358-B] | 32 |
| CN1CCCC(Nc2cccc3c(CC(F)(F)F)c(C#CCNC(=O)c4cnn(C(C)(C)C)c4N)nn23)CC1 (single isomer, unassigned) [Compound 369-A, 5-amino-1-tert-butyl-N-(3-(7-[(1-methylazepan-4-yl)amino]-3-(2,2,2-trifluoroethyl)pyrazolo[1,5-a]pyridin-2-yl)prop-2-yn-1-yl)-1H-pyrazole-4-carboxamide] | 8 |
| CN1CCCC(Nc2cccc3c(CC(F)(F)F)c(C#CCNC(=O)c4cnn(C(C)(C)C)c4N)nn23)CC1 (single isomer, unassigned) [Compound 369-B, 5-amino-1-tert-butyl-N-(3-(7-[(1-methylazepan-4-yl)amino]-3-(2,2,2-trifluoroethyl)pyrazolo[1,5-a]pyridin-2-yl)prop-2-yn-1-yl)-1H-pyrazole-4-carboxamide] | 5 |
| CN1CC[C@@H](Nc2cccc3c(CC(F)(F)F)c(C#CCNC(=O)c4cnn(C5CC5)c4)nn23)[C@@H](F)C1 [Compound 005, 1-cyclopropyl-N-[3-(7-{[(3S,4R)-3-fluoro-1-methylpiperidin-4-yl]amino}-3-(2,2,2-trifluoroethyl)pyrazolo[1,5-a]pyridin-2-yl)prop-2-yn-1-yl]-1H-pyrazole-4-carboxamide] | 16 |
| CN1CC[C@@H](Nc2cccc3c(CC(F)(F)F)c(C#CCNC(=O)c4cnn(C5CCC5)c4)nn23)[C@@H](F)C1 [Compound 006, 1-cyclobutyl-N-[3-(7-{[(3S,4R)-3-fluoro-1-methylpiperidin-4-yl]amino}-3-(2,2,2-trifluoroethyl)pyrazolo[1,5-a]pyridin-2-yl)prop-2-yn-1-yl]-1H-pyrazole-4-carboxamide] | 11 |
| CN1CC[C@@H](Nc2cccc3c(CC(F)(F)F)c(C#CCNC(=O)c4cnn(C5CCCC5)c4)nn23)[C@@H](F)C1 [Compound 007, 1-cyclopentyl-N-[3-(7-{[(3S,4R)-3-fluoro-1-methylpiperidin-4-yl]amino}-3-(2,2,2-trifluoroethyl)pyrazolo[1,5-a]pyridin-2-yl)prop-2-yn-1-yl]-1H-pyrazole-4-carboxamide] | 11 |
| CN1CC[C@@H](Nc2cccc3c(CC(F)(F)F)c(C#CCNC(=O)c4cnn(C5COC5)c4)nn23)[C@@H](F)C1 [Compound 009, N-[3-(7-{[(3S,4R)-3-fluoro-1-methylpiperidin-4-yl]amino}-3-(2,2,2-trifluoroethyl)pyrazolo[1,5-a]pyridin-2-yl)prop-2-yn-1-yl]-1-(oxetan-3-yl)-1H-pyrazole-4-carboxamide] | 7 |
| CN1CC[C@@H](Nc2cccc3c(CC(F)(F)F)c(C#CCNC(=O)c4cnn(C5(C)CC5)c4)nn23)[C@@H](F)C1 [Compound 010, N-[3-(7-{[(3S,4R)-3-fluoro-1-methylpiperidin-4-yl]amino}-3-(2,2,2-trifluoroethyl)pyrazolo[1,5-a]pyridin-2-yl)prop-2-yn-1-yl]-1-(1-methylcyclopropyl)-1H-pyrazole-4-carboxamide] | 9 |
| CN1CCC(n2cc(C(=O)NCC#Cc3nn4c(N[C@@H]5CCN(C)C[C@@H]5F)cccc4c3CC(F)(F)F)cn2)CC1 [Compound 012, N-[3-(7-{[(3S,4R)-3-fluoro-1-methylpiperidin-4-yl]amino}-3-(2,2,2-trifluoroethyl)pyrazolo[1,5-a]pyridin-2-yl)prop-2-yn-1-yl]-1-(1-methylpiperidin-4-yl)-1H-pyrazole-4-carboxamide] | 4 |
| CN1CC[C@@H](Nc2cccc3c(CC(F)(F)F)c(C#CCNC(=O)c4cnn(C5CCOCC5)c4)nn23)[C@@H](F)C1 [Compound 013, N-[3-(7-{[(3S,4R)-3-fluoro-1-methylpiperidin-4-yl]amino}-3-(2,2,2-trifluoroethyl)pyrazolo[1,5-a]pyridin-2-yl)prop-2-yn-1-yl]-1-((tetrahydro-2H-pyran-4-yl))-1H-pyrazole-4-carboxamide] | 7 |
| CN1CC[C@@H](Nc2cccc3c(CC(F)(F)F)c(C#CCNC(=O)c4cnn(C5(C)CCOCC5)c4)nn23)[C@@H](F)C1 [Compound 014] | 13 |
| CN1CC[C@@H](Nc2cccc3c(CC(F)(F)F)c(C#CCNC(=O)c4cnn(-c5ccccc5)c4)nn23)[C@@H](F)C1 [Compound 015, N-[3-(7-{[(3S,4R)-3-fluoro-l-methylpiperidin-4-yl]amino}-3-(2,2,2-trifluoroethyl)pyrazolo[1,5-a]pyridin-2-yl)prop-2-yn-1-yl]-1-phenyl-1H-pyrazole-4-carboxamide] | 62 |
| COCC(C)(C)n1cc(C(=O)NCC#Cc2nn3c(N[C@@H]4CCN(C)C[C@@H]4F)cccc3c2CC(F)(F)F)cn1 [Compound 022, N-[3-(7-{[(3S,4R)-3-fluoro-1-methylpiperidin-4-yl]amino}-3-(2,2,2-trifluoroethyl)pyrazolo[1,5-a]pyridin-2-yl)prop-2-yn-1-yl]-1-(1-methoxy-2-methylpropan-2-yl)-1H-pyrazole-4-carboxamide] | 8 |
| CN1CC[C@@H](Nc2cccc3c(CC(F)(F)F)c(C#CCNC(=O)c4cnn(C(F)(F)F)c4)nn23)[C@@H](F)C1 [Compound 024, N-[3-(7-{[(3S,4R)-3-fluoro-1-methylpiperidin-4-yl]amino}-3-(2,2,2-trifluoroethyl)pyrazolo[1,5-a]pyridin-2-yl)prop-2-yn-1-yl]-1-(trifluoromethyl)-1H-pyrazole-4-carboxamide] | 58 |
| CC(n1cc(C(=O)NCC#Cc2nn3c(N[C@@H]4CCN(C)C[C@@H]4F)cccc3c2CC(F)(F)F)cn1)C(F)(F)F (stereo partly drawn) [Compound 029, N-[3-(7-{[(3S,4R)-3-fluoro-1-methylpiperidin-4-yl]amino}-3-(2,2,2-trifluoroethyl)pyrazolo[1,5-a]pyridin-2-yl)prop-2-yn-1-yl]-1-(1,1,1-trifluoroprop-2-yl)-1H-pyrazole-4-carboxamide] | 15 |
| CN1CC[C@@H](Nc2cccc3c(CC(F)(F)F)c(C#CCNC(=O)c4cnn(CC(F)(F)F)c4)nn23)[C@@H](F)C1 [Compound 030] | 18 |
| COc1nn(C(C)(C)C)cc1C(=O)NCC#Cc1nn2c(N[C@@H]3CCN(C)C[C@@H]3F)cccc2c1CC(F)(F)F [Compound 043] | 86 |
| COc1cccc(C(=O)NCC#Cc2nn3c(N[C@@H]4CCN(C)C[C@@H]4F)cccc3c2CC(F)(F)F)c1 [Compound 072, N-[3-(7-{[(3S,4R)-3-fluoro-1-methylpiperidin-4-yl]amino}-3-(2,2,2-trifluoroethyl)pyrazolo[1,5-a]pyridin-2-yl)prop-2-yn-1-yl]-3-methoxybenzamide] | 41 |
| CN1CC[C@@H](Nc2cccc3c(CC(F)(F)F)c(C#CCNC(=O)c4ccccn4)nn23)[C@@H](F)C1 [Compound 075, N-[3-(7-{[(3S,4R)-3-fluoro-1-methylpiperidin-4-yl]amino}-3-(2,2,2-trifluoroethyl)pyrazolo[1,5-a]pyridin-2-yl)prop-2-yn-1-yl]pyridine-2-carboxamide] | 95 |
| CN1CC[C@@H](Nc2cccc3c(CC(F)(F)F)c(C#CCNC(=O)c4ccc(F)cc4)nn23)[C@@H](F)C1 [Compound 076, 4-fluoro-N-[3-(7-{[(3S,4R)-3-fluoro-1-methylpiperidin-4-yl]amino}-3-(2,2,2-trifluoroethyl)pyrazolo[1,5-a]pyridin-2-yl)prop-2-yn-1-yl]benzamide] | 75 |
| CN1CC[C@@H](Nc2cccc3c(CC(F)(F)F)c(C#CCNC(=O)c4cn(C(C)(C)C)nn4)nn23)[C@@H](F)C1 [Compound 142, 1-tert-butyl-N-[3-(7-{[(3S,4R)-3-fluoro-1-methylpiperidin-4-yl]amino}-3-(2,2,2-trifluoroethyl)pyrazolo[1,5-a]pyridin-2-yl)prop-2-yn-1-yl]-1H-1,2,3-triazole-4-carboxamide] | 29 |
| CN1CC[C@@H](Nc2cccc3c(CC(F)(F)F)c(C#CCNC(=O)c4nnn(C(C)(C)C)n4)nn23)[C@@H](F)C1 [Compound 145, 2-tert-butyl-N-[3-(7-{[(3S,4R)-3-fluoro-1-methylpiperidin-4-yl]amino}-3-(2,2,2-trifluoroethyl)pyrazolo[1,5-a]pyridin-2-yl)prop-2-yn-1-yl]-2H-tetrazole-5-carboxamide] | 50 |
